According to patent US9758517B2, “Histone demethylase inhibitors” (Quanticel Pharmaceuticals, Inc., priority 2014, dated 2017):

These molecules were tested against JMJD2C (Homo sapiens (Human), UniProt Q9H3R0) (assay: In vitro enzyme inhibition assay, JMJD2C demethylase activity (TR-FRET)). Conditions: 0.3 nM JMJD2C, 300 nM H3K9me3-biotin peptide, 2 μM alpha-ketoglutaric acid, 30 minutes at room temperature.
Type: biochemical
Procedure: This assay determines the ability of a test compound to inhibit JMJD2C demethylase activity. Baculovirus expressed JMJD2C (GenBank Accession #BC143571, AA 2-372) was purchased from BPS Bioscience (Cat#50105).
The ability of test compounds to inhibit the activity of JMJD2C was determined in 384-well plate format under the following reaction conditions: 0.3 nM JMJD2C, 300 nM H3K9me3-biotin labeled peptide (Anaspec cat #64360), 2 μM alpha-ketoglutaric acid in assay buffer of 50 mM HEPES, pH7.3, 0.005% Brij35, 0.5 mM TCEP, 0.2 mg/ml BSA, 50 μM sodium L-ascorbate, and 2 μM ammonium iron(II) sulfate. Reaction product was determined quantitatively by TR-FRET after the addition of detection reagent Phycolink Streptavidin-allophycocyanin (Prozyme) and Europium-anti-di-methylated histone H3 lysine 9 (H3K9me2) antibody (PerkinElmer) in the presence of 5 mM EDTA in LANCE detection buffer (PerkinElmer) at a final concentration of 50 nM and 1 nM, respectively.
The assay reaction was initiated by the following: 2 μL of the mixture of 900 nM H3K9me3-biotin labeled peptide and 6 μM alpha-ketoglutaric acid with 2 μL of 11-point serial diluted inhibitor in 3% DMSO were added to each well of the plate, followed by the addition of 2 μl of 0.9 nM JMJD2C to initiate the reaction. The reaction mixture was incubated at room temperature for 30 minutes, and terminated by the addition of 6 μL of 5 mM EDTA in LANCE detection buffer containing 100 nM Phycolink Streptavidin-allophycocyanin and 2 nM Europium-anti-H3K9me2 antibody. Plates were read by EnVisionMultilabel Reader in TR-FRET mode (excitation at 320 nm, emission at 615 nm and 665 nm) after 1 hour incubation at room temperature. A ratio was calculated (665/615) for each well and fitted to determine inhibition constant (IC50).

JMJD2C, sequence (Q9H3R0 2-372): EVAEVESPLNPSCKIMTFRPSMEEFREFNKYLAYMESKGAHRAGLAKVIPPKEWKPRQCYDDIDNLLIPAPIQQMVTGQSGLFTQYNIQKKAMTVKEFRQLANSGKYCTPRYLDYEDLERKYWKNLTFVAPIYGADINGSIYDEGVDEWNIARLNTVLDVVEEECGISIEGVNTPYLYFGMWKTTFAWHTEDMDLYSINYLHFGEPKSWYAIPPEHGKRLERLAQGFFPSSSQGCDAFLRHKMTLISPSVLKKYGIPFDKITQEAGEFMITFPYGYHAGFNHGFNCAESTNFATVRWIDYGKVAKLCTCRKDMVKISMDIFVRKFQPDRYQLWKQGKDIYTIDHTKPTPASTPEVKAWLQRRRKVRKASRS

SMILES	IC50 [nM]
O=C(O)c1ccnc2cc(-c3c4ccc(Cl)cc4nn3CC3CC3)[nH]c12 [Example 9, 2-[6-Chloro-2-(cyclopropylmethyl)-2H-indazol-3-yl]-1H-pyrrolo[3,2-b]pyridine-7-carboxylic acid]	1000 to 10000
Cn1nc2cc(Cl)ccc2c1-c1cc2nccc(C(=O)O)c2[nH]1 [Example 3, 2-(6-Chloro-2-methyl-2H-indazol-3-yl)-1H-pyrrolo[3,2-b]pyridine-7-carboxylic acid]	100 to 1000
COc1ccc2nn(C)c(-c3cc4nccc(C(=O)O)c4[nH]3)c2c1 [Example 2, 2-(5-Methoxy-2-methyl-2H-indazol-3-yl)-1H-pyrrolo[3,2-b]pyridine-7-carboxylic acid]	100 to 1000
CN(c1ccccc1)c1cccc2c(-c3cc4nccc(C(=O)O)c4[nH]3)n(C)nc12 [Example 12, 2-{2-methyl-7-[methyl(phenyl)amino]-2H-indazol-3-yl}-1H-pyrrolo[3,2-b]pyridine-7-carboxylic acid]	1000 to 10000
O=C(O)c1ccnc2cc(-c3nn(CCN4CCOCC4)c4ccc(F)cc34)[nH]c12 [Example 21, 2-{5-fluoro-1-[2-(morpholin-4-yl)ethyl]-1H-indazol-3-yl}-1H-pyrrolo[3,2-b]pyridine-7-carboxylic acid]	1000 to 10000
Cn1nc2ccc(Cl)cc2c1-c1cc2nccc(C(=O)O)c2[nH]1 [Example 7, 2-(5-Chloro-2-methyl-2H-indazol-3-yl)-1H-pyrrolo[3,2-b]pyridine-7-carboxylic acid]	1000 to 10000
O=C(O)c1ccnc2cc(-c3c4cc(Cl)ccc4nn3CCN3CCCC3)[nH]c12 [Example 10, 2-{5-Chloro-2-[2-(pyrrolidin-1-yl)ethyl]-2H-indazol-3-yl}-1H-pyrrolo[3,2-b]pyridine-7-carboxylic acid]	100 to 1000
O=C(O)c1ccnc2cc(-c3nn(CCN4CCCC4)c4ccc(Cl)cc34)[nH]c12 [Example 20, 2-{5-chloro-1-[2-(pyrrolidin-1-yl)ethyl]-1H-indazol-3-yl}-1H-pyrrolo[3,2-b]pyridine-7-carboxylic acid]	100 to 1000
Cn1nc2ccc(C(F)(F)F)cc2c1-c1cc2nccc(C(=O)O)c2[nH]1 [Example 4, 2-[2-Methyl-5-(trifluoromethyl)-2H-indazol-3-yl]-1H-pyrrolo[3,2-b]pyridine-7-carboxylic acid]	1000 to 10000
Cn1nc2ccc(C3CC3)cc2c1-c1cc2nccc(C(=O)O)c2[nH]1 [Example 6, 2-(5-Cyclopropyl-2-methyl-2H-indazol-3-yl)-1H-pyrrolo[3,2-b]pyridine-7-carboxylic acid]	100 to 1000
CN(c1ccccc1)c1ccc2c(-c3cc4nccc(C(=O)O)c4[nH]3)n(C)nc2c1 [Example 11, 2-{2-methyl-6-[methyl(phenyl)amino]-2H-indazol-3-yl}-1H-pyrrolo[3,2-b]pyridine-7-carboxylic acid]	100 to 1000
Cn1nc(-c2cc3nccc(C(=O)O)c3[nH]2)c2ccccc21 [Example 13, 2-(1-methyl-1H-indazol-3-yl)-1H-pyrrolo[3,2-b]pyridine-7-carboxylic acid]	100 to 1000
COc1ccc2c(-c3cc4nccc(C(=O)O)c4[nH]3)n(C)nc2c1 [Example 1, 2-(6-Methoxy-2-methyl-2H-indazol-3-yl)-1H-pyrrolo[3,2-b]pyridine-7-carboxylic acid]	100 to 1000
Cn1nc(-c2cc3nccc(C(=O)O)c3[nH]2)c2ccc(Cl)cc21 [Example 15, 2-(6-chloro-1-methyl-1H-indazol-3-yl)-1H-pyrrolo[3,2-b]pyridine-7-carboxylic acid]	100 to 1000
CCn1nc(-c2cc3nccc(C(=O)O)c3[nH]2)c2ccc(Cl)cc21 [Example 17, 2-(6-chloro-1-ethyl-1H-indazol-3-yl)-1H-pyrrolo[3,2-b]pyridine-7-carboxylic acid]	1000 to 10000
Cn1nc(-c2cc3nccc(C(=O)O)c3[nH]2)c2ccc(F)cc21 [Example 16, 2-(6-fluoro-1-methyl-1H-indazol-3-yl)-1H-pyrrolo[3,2-b]pyridine-7-carboxylic acid]	100 to 1000
O=C(O)c1ccnc2cc(-c3nn(CC4CC4)c4cc(Cl)ccc34)[nH]c12 [Example 18, 2-[6-chloro-1-(cyclopropylmethyl)-1H-indazol-3-yl]-1H-pyrrolo[3,2-b]pyridine-7-carboxylic acid]	1000 to 10000
O=C(O)c1ccnc2cc(-c3nn(CC(F)(F)F)c4cc(Cl)ccc34)[nH]c12 [Example 19, 2-[6-chloro-1-(2,2,2-trifluoroethyl)-1H-indazol-3-yl]-1H-pyrrolo[3,2-b]pyridine-7-carboxylic acid]	1000 to 10000
CCn1nc2cc(Cl)ccc2c1-c1cc2nccc(C(=O)O)c2[nH]1 [Example 8, 2-(6-Chloro-2-ethyl-2H-indazol-3-yl)-1H-pyrrolo[3,2-b]pyridine-7-carboxylic acid]	1000 to 10000
Cn1nc(-c2cc3nccc(C(=O)O)c3[nH]2)c2cc(F)ccc21 [Example 14, 2-(5-fluoro-1-methyl-1H-indazol-3-yl)-1H-pyrrolo[3,2-b]pyridine-7-carboxylic acid]	100 to 1000
Cn1nc2ccc(OC(F)(F)F)cc2c1-c1cc2nccc(C(=O)O)c2[nH]1 [Example 5, 2-[2-Methyl-5-(trifluoromethoxy)-2H-indazol-3-yl]-1H-pyrrolo[3,2-b]pyridine-7-carboxylic acid]	1000 to 10000
